Assays:
Test in all cases: cells
HH = assay type: functional, cell-based; details: Homo sapiens
Description: SANGER: Inhibition of human HH cell growth in a cell viability assay.

UACC-62 = assay type: functional, cell-based, Homo sapiens; details: Homo sapiens, UACC-62;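 also: growth inhibition of human UACC-62 cells, read out by a cell viability assay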
Description: SANGER: Inhibition of human UACC-62 cell growth in a cell viability assay.

DJM-1 = assay type: functional, cell-based, Homo sapiens; details: Homo sapiens, DJM-1;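 also: growth inhibition of human DJM-1 cells, read out by a cell viability assay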
Description: SANGER: Inhibition of human DJM-1 cell growth in a cell viability assay.

HDLM-2 = assay type: functional, cell-based; details: Homo sapiens;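 also: cell viability assay measuring suppression of HDLM-2 proliferation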
Description: SANGER: Inhibition of human HDLM-2 cell growth in a cell viability assay.

MEL-HO = assay type: functional, cell-based, Homo sapiens; details: Homo sapiens, MEL-HO
Description: SANGER: Inhibition of human MEL-HO cell growth in a cell viability assay.

KYSE-450 = assay type: functional, cell-based; details: Homo sapiens;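 also: cell growth inhibition measured by a viability assay in human KYSE-450 cells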
Description: SANGER: Inhibition of human KYSE-450 cell growth in a cell viability assay.

PSN1 = assay type: functional, cell-based, Homo sapiens; details: Homo sapiens, PSN1;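 also: suppression of growth of human PSN1 cells, read out by a cell viability assay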
Description: SANGER: Inhibition of human PSN1 cell growth in a cell viability assay.

ATN-1 = assay type: functional, cell-based; details: Homo sapiens;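 also: growth inhibition of human ATN-1 cells, read out with a cell viability assay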
Description: SANGER: Inhibition of human ATN-1 cell growth in a cell viability assay.

NCI-H1651 = assay type: functional, cell-based, Homo sapiens; details: Homo sapiens, NCI-H1651;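 also: Read-out is a cell viability assay, with IC50 expressing inhibition of NCI-H1651 cell growth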
Description: SANGER: Inhibition of human NCI-H1651 cell growth in a cell viability assay.

NCI-H810 = assay type: functional, cell-based, Homo sapiens; details: Homo sapiens, NCI-H810;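 also: IC50 reflects inhibition of cancer cell line growth, read out with a cell viability assay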
Description: SANGER: Inhibition of human NCI-H810 cell growth in a cell viability assay.

NCI-H1770 = assay type: functional, cell-based; details: Homo sapiens;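 also: growth inhibition of NCI-H1770 cells determined with a viability readout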
Description: SANGER: Inhibition of human NCI-H1770 cell growth in a cell viability assay.

TE-5 = assay type: functional, cell-based, Homo sapiens; details: Homo sapiens, TE-5;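 also: inhibition of cell growth, read out by a cell viability assay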
Description: SANGER: Inhibition of human TE-5 cell growth in a cell viability assay.

COLO-824 = assay type: functional, cell-based, Homo sapiens; details: Homo sapiens, COLO-824
Description: SANGER: Inhibition of human COLO-824 cell growth in a cell viability assay.

L-428 = assay type: functional, cell-based; details: Homo sapiens
Description: SANGER: Inhibition of human L-428 cell growth in a cell viability assay.

NCI-H2342 = assay type: functional, cell-based; details: Homo sapiens;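 also: growth inhibition of the cancer cell line, determined with a cell viability assay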
Description: SANGER: Inhibition of human NCI-H2342 cell growth in a cell viability assay.

KY821 = assay type: functional, cell-based; details: Homo sapiens;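 also: growth inhibition of human KY821 cells, read out by a cell viability assay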
Description: SANGER: Inhibition of human KY821 cell growth in a cell viability assay.

EW-11 = assay type: functional, cell-based, Homo sapiens; details: Homo sapiens, EW-11;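 also: growth inhibition of human EW-11 cells, measured with a cell viability assay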
Description: SANGER: Inhibition of human EW-11 cell growth in a cell viability assay.

NY = assay type: functional, cell-based, Homo sapiens; details: Homo sapiens, NY
Description: SANGER: Inhibition of human NY cell growth in a cell viability assay.

OCI-AML2 = assay type: functional, cell-based; details: Homo sapiens;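 also: growth inhibition of OCI-AML2 cells, read out with a cell viability assay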
Description: SANGER: Inhibition of human OCI-AML2 cell growth in a cell viability assay.

DU-145 = assay type: functional, cell-based, Homo sapiens; details: Homo sapiens, DU-145
Description: SANGER: Inhibition of human DU-145 cell growth in a cell viability assay.

LS-513 = assay type: functional, cell-based, Homo sapiens; details: Homo sapiens, LS-513
Description: SANGER: Inhibition of human LS-513 cell growth in a cell viability assay.

NCI-H1648 = assay type: functional, cell-based, Homo sapiens; details: Homo sapiens, NCI-H1648;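 also: cell viability assay measuring inhibition of NCI-H1648 cell growth, from the Sanger screening data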
Description: SANGER: Inhibition of human NCI-H1648 cell growth in a cell viability assay.

ES5 = assay type: functional, cell-based, Homo sapiens; details: Homo sapiens, ES5;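 also: growth inhibition of human ES5 cells, read out by a cell viability assay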
Description: SANGER: Inhibition of human ES5 cell growth in a cell viability assay.

UMUC3 = assay type: functional, cell-based, Homo sapiens; details: Homo sapiens, UMUC3;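 also: growth inhibition of human UM-UC-3 cells, read out with a cell viability assay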
Description: SANGER: Inhibition of human UM-UC-3 cell growth in a cell viability assay.

BB30-HNC = assay type: functional, cell-based, Homo sapiens; details: Homo sapiens, BB30-HNC;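 also: growth inhibition of the cultured cell line, read out by a cell viability assay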
Description: SANGER: Inhibition of human BB30-HNC cell growth in a cell viability assay.

NCI-H1993 = assay type: functional, cell-based, Homo sapiens; details: Homo sapiens, NCI-H1993;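 also: growth inhibition of the cancer cell line, assessed with a cell viability assay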
Description: SANGER: Inhibition of human NCI-H1993 cell growth in a cell viability assay.

ASPC1 = assay type: functional, cell-based, Homo sapiens; details: Homo sapiens, ASPC1;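 also: growth inhibition of AsPC-1 cells, read out with a cell viability assay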
Description: SANGER: Inhibition of human AsPC-1 cell growth in a cell viability assay.

VMRC-RCZ = assay type: functional, cell-based; details: Homo sapiens;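 also: growth inhibition measured with a cell viability assay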
Description: SANGER: Inhibition of human VMRC-RCZ cell growth in a cell viability assay.

DB = assay type: functional, cell-based; details: Homo sapiens
Description: SANGER: Inhibition of human DB cell growth in a cell viability assay.

A 172 = assay type: functional, cell-based, Homo sapiens; details: Homo sapiens, A 172;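 also: growth inhibition of A172 cells, measured with a cell viability readout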
Description: SANGER: Inhibition of human A172 cell growth in a cell viability assay.

OVCAR-8 = assay type: functional, cell-based, Homo sapiens; details: Homo sapiens, OVCAR-8;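 also: growth inhibition of human OVCAR-8 cells, read out by a cell viability assay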
Description: SANGER: Inhibition of human OVCAR-8 cell growth in a cell viability assay.

LS-411N = assay type: functional, cell-based, Homo sapiens; details: Homo sapiens, LS-411N
TK-10 = assay type: functional, cell-based, Homo sapiens; details: Homo sapiens, TK-10;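 also: growth inhibition of TK-10 cells, read out in a cell viability assay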
Description: SANGER: Inhibition of human TK10 cell growth in a cell viability assay.

RPMI-2650 = assay type: functional, cell-based, Homo sapiens; details: Homo sapiens, RPMI-2650
Description: SANGER: Inhibition of human RPMI-2650 cell growth in a cell viability assay.

UACC-257 = assay type: functional, cell-based, Homo sapiens; details: Homo sapiens, UACC-257
Description: SANGER: Inhibition of human UACC-257 cell growth in a cell viability assay.

EFO-27 = assay type: functional, cell-based, Homo sapiens; details: Homo sapiens, EFO-27;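 also: growth inhibition of EFO-27 cells, read out with a cell viability assay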
Description: SANGER: Inhibition of human EFO-27 cell growth in a cell viability assay.

SAOS-2 = assay type: functional, cell-based, Homo sapiens; details: Homo sapiens, SAOS-2;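 also: growth inhibition of human Saos-2 cells determined by a cell viability assay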
Description: SANGER: Inhibition of human Saos-2 cell growth in a cell viability assay.

HuO-3N1 = assay type: functional, cell-based, Homo sapiens; details: Homo sapiens, HuO-3N1;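 also: cell viability readout used to measure how strongly compounds suppress proliferation of human HuO-3N1 cells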
Description: SANGER: Inhibition of human HuO-3N1 cell growth in a cell viability assay.

LNCaP-Clone-FGC = assay type: functional, cell-based, Homo sapiens; details: Homo sapiens, LNCaP-Clone-FGC
Description: SANGER: Inhibition of human LNCaP-Clone-FGC cell growth in a cell viability assay.

JVM-3 = assay type: functional, cell-based; details: Homo sapiens;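 also: growth inhibition of human JVM-3 cells, read out with a cell viability assay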
Description: SANGER: Inhibition of human JVM-3 cell growth in a cell viability assay.

TE-9 = assay type: functional, cell-based, Homo sapiens; details: Homo sapiens, TE-9;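 also: cell growth inhibition, measured with a cell viability readout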
Description: SANGER: Inhibition of human TE-9 cell growth in a cell viability assay.

CAL-72 = assay type: functional, cell-based, Homo sapiens; details: Homo sapiens, CAL-72;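 also: cell viability assay measuring inhibition of proliferation in the CAL-72 cell line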
Description: SANGER: Inhibition of human CAL-72 cell growth in a cell viability assay.

COLO-800 = assay type: functional, cell-based, Homo sapiens; details: Homo sapiens, COLO-800;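 also: growth inhibition of COLO-800 cells, read out with a cell viability assay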
Description: SANGER: Inhibition of human COLO-800 cell growth in a cell viability assay.

MHH-PREB-1 = assay type: functional, cell-based; details: Homo sapiens;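 also: cell viability assay measuring inhibition of proliferation of human MHH-PREB-1 cells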
Description: SANGER: Inhibition of human MHH-PREB-1 cell growth in a cell viability assay.

HCC1187 = assay type: functional, cell-based, Homo sapiens; details: Homo sapiens, HCC1187;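 also: growth inhibition of HCC1187 cells, read out with a cell viability assay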
Description: SANGER: Inhibition of human HCC1187 cell growth in a cell viability assay.

FaDu = assay type: functional, cell-based, Homo sapiens; details: Homo sapiens, FaDu;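 also: cell viability readout of growth inhibition in FaDu cells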
Description: SANGER: Inhibition of human FADU cell growth in a cell viability assay.

SNU-387 = assay type: functional, cell-based, Homo sapiens; details: Homo sapiens, SNU-387
Description: SANGER: Inhibition of human SNU-387 cell growth in a cell viability assay.

RVH-421 = assay type: functional, cell-based, Homo sapiens; details: Homo sapiens, RVH-421
Description: SANGER: Inhibition of human RVH-421 cell growth in a cell viability assay.

NOMO-1 = assay type: functional, cell-based; details: Homo sapiens;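 also: growth inhibition of human NOMO-1 cells measured by a cell viability assay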
Description: SANGER: Inhibition of human NOMO-1 cell growth in a cell viability assay.

K562 = assay type: functional, cell-based; details: Homo sapiens
Description: SANGER: Inhibition of human K-562 cell growth in a cell viability assay.

MZ7-mel = assay type: functional, cell-based, Homo sapiens; details: Homo sapiens, MZ7-mel;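 also: growth inhibition of human MZ7-mel cells, measured by a cell viability assay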
Description: SANGER: Inhibition of human MZ7-mel cell growth in a cell viability assay.

How did the IC50 (HH) turn out when COC(=O)CNC(=O)C(=O)OC was run?
Its IC50 is 34 µM.

What about the IC50 (UACC-62) of the same molecule?
The IC50 was over 4000 µM.

What about the IC50 (DJM-1) of the same molecule?
The IC50 was 215 µM.

And the IC50 (HDLM-2)?
The IC50 was 1890 µM.

And the IC50 (MEL-HO)?
The IC50 was 3610 µM.

And the IC50 (KYSE-450)?
The IC50 was 2480 µM.

What about the IC50 (PSN1) of the same molecule?
The IC50 was over 4000 µM.

What about the IC50 (ATN-1) of the same molecule?
The IC50 was 601 µM.

What about the IC50 (NCI-H1651) of the same molecule?
Its IC50 is 1360 µM.

And the IC50 (NCI-H810)?
Its IC50 is 630 µM.

And the IC50 (NCI-H1770)?
Its IC50 is over 4000 µM.

And the IC50 (TE-5)?
Its IC50 is 1080 µM.

What about the IC50 (COLO-824) of the same molecule?
Its IC50 is 2400 µM.

And the IC50 (L-428)?
Its IC50 is 688 µM.

What about the IC50 (NCI-H2342) of the same molecule?
The IC50 was 104 µM.

And the IC50 (KY821)?
The IC50 was over 4000 µM.

What about the IC50 (EW-11) of the same molecule?
Its IC50 is 1050 µM.

What about the IC50 (NY) of the same molecule?
Its IC50 is 725 µM.

And the IC50 (OCI-AML2)?
Its IC50 is 501 µM.

What about the IC50 (DU-145) of the same molecule?
The IC50 was 825 µM.

And the IC50 (LS-513)?
Its IC50 is 1850 µM.

What about the IC50 (NCI-H1648) of the same molecule?
Its IC50 is 1670 µM.

What about the IC50 (ES5) of the same molecule?
Its IC50 is over 4000 µM.

And the IC50 (UMUC3)?
Its IC50 is 264 µM.

What about the IC50 (BB30-HNC) of the same molecule?
Its IC50 is 148 µM.

And the IC50 (NCI-H1993)?
The IC50 was 331 µM.

And the IC50 (ASPC1)?
Its IC50 is 3920 µM.

And the IC50 (VMRC-RCZ)?
Its IC50 is 1960 µM.

What about the IC50 (DB) of the same molecule?
Its IC50 is 52.4 µM.

What about the IC50 (A 172) of the same molecule?
Its IC50 is 566 µM.

And the IC50 (OVCAR-8)?
Its IC50 is 593 µM.

What about the IC50 (LS-411N) of the same molecule?
Its IC50 is over 4000 µM.

And the IC50 (TK-10)?
Its IC50 is 355 µM.

And the IC50 (RPMI-2650)?
Its IC50 is 279 µM.

And the IC50 (UACC-257)?
Its IC50 is 1090 µM.

And the IC50 (EFO-27)?
Its IC50 is 541 µM.

And the IC50 (SAOS-2)?
The IC50 was 193 µM.

And the IC50 (HuO-3N1)?
Its IC50 is 701 µM.

And the IC50 (LNCaP-Clone-FGC)?
Its IC50 is 3210 µM.

And the IC50 (JVM-3)?
The IC50 was over 4000 µM.

What about the IC50 (TE-9) of the same molecule?
Its IC50 is 951 µM.

What about the IC50 (CAL-72) of the same molecule?
Its IC50 is 488 µM.

And the IC50 (COLO-800)?
Its IC50 is over 4000 µM.

What about the IC50 (MHH-PREB-1) of the same molecule?
The IC50 was 137 µM.

What about the IC50 (HCC1187) of the same molecule?
The IC50 was over 4000 µM.

What about the IC50 (FaDu) of the same molecule?
Its IC50 is 99.9 µM.

What about the IC50 (SNU-387) of the same molecule?
Its IC50 is 220 µM.

What about the IC50 (RVH-421) of the same molecule?
The IC50 was 1310 µM.

And the IC50 (NOMO-1)?
Its IC50 is 154 µM.

What about the IC50 (K562) of the same molecule?
The IC50 was 2030 µM.

And the IC50 (MZ7-mel)?
The IC50 was 171 µM.
